From ChEMBL document CHEMBL1158919, “Antiviral Activity of Ternatin and Meliternatin, 3-Methoxyflavones from Species of Rutaceae” (J Nat Prod, 1990)
Active and inactive are the calls of the source. The calls are words filed in the database; no cut-off is given here.

Legend:
Poliovirus 2 [1] = assay: Antiviral activity against Poliovirus type 2 infected in african green monkey Vero cells assessed as reduction in viral titer at 5 ug/mL; format: functional, organism-based
Vero [2] = assay: Cytotoxicity against african green monkey Vero cells assessed as cell lysis at >800 uM after 96 hrs; format: cell-based; conditions: chlorocebus sabaeus
Poliovirus 2 [3] = assay: Antiviral activity against 10^-2 MOI Poliovirus type 2 infected in african green monkey Vero cells assessed as inhibition of virus-induced cytopathic effect; format: functional; conditions: Enterovirus C, read-out: ED50 (the source's name)
[4] = tested on: Vesicular stomatitis virus; assay: Antiviral activity against 10^-3 MOI VSV infected in african green monkey Vero cells assessed as inhibition of virus-induced cytopathic effect; format: functional; conditions: read-out: ED50 (the source's name)
[5] = tested on: Vesicular stomatitis virus; assay: Antiviral activity against VSV infected in african green monkey Vero cells assessed as log reduction in viral titer; format: functional
Human adenovirus 2 [6] = assay: Antiviral activity against 10^-3 MOI Human adenovirus 2 infected in african green monkey Vero cells assessed as inhibition of virus-induced cytopathic effect; format: functional; conditions: Human mastadenovirus C, read-out: ED50 (the source's name)
Human alphaherpesvirus 1 [7] = assay: Antiviral activity against 10^-2 MOI HSV1 infected in african green monkey Vero cells assessed as inhibition of virus-induced cytopathic effect; format: functional, organism-based
[8] = Therapeutic index, ratio of CyD50 for african green monkey Vero cells to ED50 for 10^-2 MOI VSV; format: cell-based; conditions: read-out: TI
Vero [9] = assay: Cytotoxicity against african green monkey Vero cells assessed as cell lysis at >200 uM after 96 hrs; format: cell-based; conditions: chlorocebus sabaeus
Human alphaherpesvirus 2 [10] = assay: Antiviral activity against 10^-2 MOI HSV2 infected in african green monkey Vero cells assessed as inhibition of virus-induced cytopathic effect; format: functional; conditions: Human alphaherpesvirus 2, Vero; read-out: ED50 (the source's name)
[11] = Therapeutic index, ratio of CyD50 for african green monkey Vero cells to ED50 for 10^-2 MOI HSV2; format: cell-based; conditions: read-out: TI
[12] = Therapeutic index, ratio of CyD50 for african green monkey Vero cells to ED50 for 10^-3 MOI HSV1; format: cell-based; conditions: read-out: TI
Vero [13] = assay: Cytotoxicity against african green monkey Vero cells up to 200 uM after 96 hrs; format: cell-based; conditions: chlorocebus sabaeus
Human adenovirus 2 [14] = assay: Antiviral activity against 10^-2 MOI Human adenovirus 2 infected in african green monkey Vero cells assessed as inhibition of virus-induced cytopathic effect; format: functional; conditions: Human mastadenovirus C, read-out: ED50 (the source's name)
Human adenovirus 2 [15] = assay: Antiviral activity against Human adenovirus 2 infected in african green monkey Vero cells assessed as log reduction in viral titer; format: functional
Poliovirus 2 [16] = assay: Antiviral activity against Poliovirus type 2 infected in african green monkey Vero cells assessed as log reduction in viral titer at 1.12 ug/mL; format: functional
[17] = Therapeutic index, ratio of CyD50 for african green monkey Vero cells to ED50 for 10^-2 MOI Human adenovirus 2; format: cell-based; conditions: read-out: TI
Human alphaherpesvirus 1 [18] = assay: Antiviral activity against HSV1 infected in african green monkey Vero cells assessed as log reduction in viral titer; format: functional
Vero [19] = assay: Cytotoxicity against african green monkey Vero cells up to 800 uM after 96 hrs; format: cell-based; conditions: chlorocebus sabaeus
Human alphaherpesvirus 2 [20] = assay: Antiviral activity against HSV2 infected in african green monkey Vero cells assessed as log reduction in viral titer; format: functional
[21] = tested on: Vesicular stomatitis virus; assay: Antiviral activity against 10^-2 MOI VSV infected in african green monkey Vero cells assessed as inhibition of virus-induced cytopathic effect; format: functional; conditions: read-out: ED50 (the source's name)
Human alphaherpesvirus 1 [22] = assay: Antiviral activity against 10^-3 MOI HSV1 infected in african green monkey Vero cells assessed as inhibition of virus-induced cytopathic effect; format: functional; conditions: Human alphaherpesvirus 1, Vero; read-out: ED50 (the source's name)
Poliovirus 2 [23] = assay: Antiviral activity against 10^-3 MOI Poliovirus type 2 infected in african green monkey Vero cells assessed as inhibition of virus-induced cytopathic effect; format: functional; conditions: Enterovirus C, read-out: ED50 (the source's name)
Human alphaherpesvirus 2 [24] = assay: Antiviral activity against 10^-3 MOI HSV2 infected in african green monkey Vero cells assessed as inhibition of virus-induced cytopathic effect; format: functional; conditions: Human alphaherpesvirus 2, Vero; read-out: ED50 (the source's name)
[25] = Therapeutic index, ratio of CyD50 for african green monkey Vero cells to ED50 for 10^-2 MOI Poliovirus 2; format: cell-based; conditions: read-out: TI
[26] = Therapeutic index, ratio of CyD50 for african green monkey Vero cells to ED50 for 10^-3 MOI Poliovirus 2; format: cell-based; conditions: read-out: TI
[27] = Therapeutic index, ratio of CyD50 for african green monkey Vero cells to ED50 for 10^-3 MOI Human adenovirus 2; format: cell-based; conditions: read-out: TI
[28] = Therapeutic index, ratio of CyD50 for african green monkey Vero cells to ED50 for 10^-3 MOI HSV2; format: cell-based; conditions: read-out: TI
[29] = Therapeutic index, ratio of CyD50 for african green monkey Vero cells to ED50 for 10^-3 MOI VSV; format: cell-based; conditions: read-out: TI

In the case of `COc1c(-c2ccc(O)c(O)c2)oc2cc(O)cc(O)c2c1=O`, the Activity (Poliovirus 2 [1]) is reported as “Active”.
For `COc1c(-c2ccc3c(c2)OCO3)oc2cc3c(c(OC)c2c1=O)OCO3` [MELITERNATIN], the Activity (Vero [2]) was “Toxic”.
In the case of `COc1cc(-c2oc3c(OC)c(OC)cc(O)c3c(=O)c2OC)ccc1O` [TERNATIN], the EC50 (Poliovirus 2 [3]) is reported as 4 µM, the EC50 [4] is reported as 38 µM and the Activity [5] is reported as 2. The EC50 (Human adenovirus 2 [6]) was 10 µM, the ED50 (Human alphaherpesvirus 1 [7]) was “inactive” and the selectivity ratio [8] was 4.2. The Activity (Vero [9]) was “Toxic”, the EC50 (Human alphaherpesvirus 2 [10]) was 100 µM and the selectivity ratio [11] was 2. The selectivity ratio [12] was 4.6, the Activity (Vero [13]) was “Non-toxic” and the EC50 (Human adenovirus 2 [14]) was 10 µM. The Activity (Human adenovirus 2 [15]) was 3, the Activity (Poliovirus 2 [16]) was 5 and the selectivity ratio [17] was 20. The Activity (Human alphaherpesvirus 1 [18]) was 1, the Activity (Vero [19]) was “Non-toxic” and the Activity (Human alphaherpesvirus 2 [20]) was 2. For the same molecule, the EC50 [21] was 48 µM, the EC50 (Human alphaherpesvirus 1 [22]) was 44 µM and the EC50 (Poliovirus 2 [23]) was 3 µM. The EC50 (Human alphaherpesvirus 2 [24]) was 14 µM, the selectivity ratio [25] was 50 and the selectivity ratio [26] was 66.6. For the same molecule, the selectivity ratio [27] was 20, the selectivity ratio [28] was 14.4 and the selectivity ratio [29] was 5.2.
